The record followed here is patent publication US12599603B2, “Methods of treatment” (INTRA-CELLULAR THERAPIES, INC., priority 2019, dated 2026).

In one assay the test system is CT26 murine cancer cells. Nature of the assay: Growth of CT26 murine colon carcinoma tumors in BALB/C mice (Example 1). It is filed as in vivo. The following applies: 50 mg/kg once daily i.p. from day 7, after 30 days, vs untreated control (FIG. 1). On the procedure:
Aliquots of cancerous cells are injected into the subscapular space of BALB/C mice to induce colon carcinoma. The tumors are allowed to grow for 7 days, when tumor volume is measured. Once a tumor has formed, drug treatment is initiated (50 mg/kg Compound 1, once daily, i.p. in 0.5% methylcellulose vehicle) and tumor growth is observed and recorded daily. Compounds 1 is shown below:
The mice were sacrificed at thirty days post-injection, and the tumors are isolated from the mice.

Assay [1] concerns immune cells in the tumor microenvironment of CT26 tumors. Description: Flow cytometry of immune cells in dissociated CT26 tumors (Example 1). The format is in vivo, BALB/C mice. The following applies: 50 mg/kg once daily i.p.; tumors isolated at thirty days post-injection; flow cytometry (FIG. 2). On the procedure: The tumors were then enzymatically dissociated into a single cell suspensions, stained with fluorophore-tagged antibodies and are analyzed by flow cytometry. Cells were sorted and analyzed for immune markers. […] In turn, it is believed this this allows the innate immune system to more efficiently target tumor cells, which is consistent with the results observed here (i.e., increased activation of T-cells in the tumor microenvironment).

Another assay deals with CT26 xenograft tumors. Nature of the assay: Growth of CT26 xenograft tumors, Compound 1 alone or with anti-PD-1 (Example 2). It is filed as in vivo, BALB/c mice. The following applies: Compound 1 50 mg/kg i.p. qd 5 days/week from day 7; anti-PD-1 sub-effective dose i.p. days 7, 10 and 14; isotype group zero out of nine. As to the method:
The effects of Compound 1, alone or combination with sub-effective doses of the checkpoint inhibitor, anti-PD-1, were assessed on the growth of CT26 xenograft tumors in BALB/c mice. Treatment-naïve tumor-bearing mice (i.e., isotype group) were compared with groups of mice receiving monotherapy of Compound 1 defined in Example 1, mice receiving a sub-effective dose of a checkpoint inhibitor (anti-PD-1 antibody), and mice receiving both Compound 1 and a sub-effective dose of anti-PD-1 antibody.
(§1) BALB/c mice were subcutaneously injected with CT26 cells at day 0 and then divided into four groups at day 7: (1) Compound 1 treatment, (50 mg/kg, i.p. qd), 5 days/week; (2) Isotype group, ip mlgG isotype at days 7, 10 and 14; (3) Anti-PD-1 group, administered i.p. at days 7, 10 and 14; and (4) Combination group, treated with Compound 1 and anti-PD-1 as group 1 and group 3. Tumor volumes were measured every 2 or 3 days. At day 17-18, tumors were excised, dissected, and used to make single cell suspensions. These tumor single cell suspensions were incubated with FC blocker (eBioscience) and then stained with antibodies on ice in the dark. Samples were acquired on a FACSCalibur, LSRII or LSRII yellow (BD Biosciences), and analyzed with FlowJo (Tree Star).
At the end of experiments, tumors were also weighed.

The subject of assay [2] is tumor-infiltrating immune cells of CT26 tumors. Description: FACS of tumor-infiltrating immune cells in CT26 tumors (Example 2). The format is in vivo, BALB/c mice. The conditions noted are these: FACS of tumors excised at day 17-18. As to the method: as §1

For the compound `CN1C(=O)c2c(nn(Cc3ccc(-c4cccc(F)n4)cc3)c2Nc2ccccc2)N2C1=N[C@@H]1CCC[C@@H]12` [Compound 1], in the assay with CT26 murine cancer cells, the tumor growth result was “significantly slowed tumor growth”. In assay [1], the “CD8 T-cells in the tumor microenvironment” value is reported as “significant increases”, the “macrophage presence in the tumor microenvironment” value is “significant decrease” and the “monocytes in the tumor microenvironment” value is listed as “significant increases”. Also, the “mice showing tumor clearance (tumor volume smaller than 100 mm^3)” value in the assay with CT26 xenograft tumors is “one out of five”. For the same compound, in assay [2], the “numbers of CD45+ tumor (infiltrating) macrophages” value is on record as “significantly decreased numbers” and the “numbers of CD45+ tumor (infiltrating) monocytes” value is given as “significantly decreased numbers”.
